Source: patent US8022205B2, “Pyrimidine derivatives as PI3K inhibitor and use thereof” (Chugai Seiyaku Kabushiki Kaisha, priority 2006, dated 2011)
Structures can show the parent of a compound that is named as a salt.

Columns and labels:
[1] = system: human prostate cancer cell line PC3; experiment: Cell proliferation inhibitory activity (Cell Counting Kit-8), prostate cancer PC3; type: cell-based; conditions: 96 h, PC3, 4 days
Experimental: (§1) The cell proliferation inhibitory activity was measured for compounds of the present invention represented by formula (I). Cancer cell proliferation inhibitory activity was measured using the Cell Counting Kit-8 (Dojindo). 2000 cells each of human colon cancer cell line HCT116 purchased from the American Type Culture Collection (Virginia, USA) were seeded into each well of a 96-well culture plate followed by the addition of a predetermined concentration of the compounds and cultivating in a CO2environment for 4 days at 37° C. On the fourth day of cultivating, the Cell Counting Kit-8 solution was added and absorbance (measuring wavelength: 450 nm, reference wavelength: 615 nm) was measured in accordance with the protocol provided with the kit.
(§2) Cancer cell proliferation inhibitory activity was also measured for human lung cancer cell line NCI-H460 and human prostate cancer cell line PC3 purchased from the American Type Culture Collection. 1000 and 3000 cells of NCI-H460 and PC3, respectively, were seeded into each well of a 96-well culture plate followed by testing in the same manner as the human colon cancer cell line and calculating the percentage of cell proliferation inhibition at 2.5 μM.

[2] = system: human lung cancer cell line NCI-H460; experiment: Cell proliferation inhibitory activity (Cell Counting Kit-8), lung cancer NCI-H460; type: cell-based; conditions: 96 h, NCI-H460, 4 days, read-out: Cell proliferation inhibitory activity (% Inhibition at 2.5 μM) Non-small cell lung cancer (NCI-H460)
Experimental: as §1, §2

[3] = system: human colon cancer cell line HCT116; experiment: Cell proliferation inhibitory activity (Cell Counting Kit-8), colon cancer HCT116; type: cell-based; conditions: HCT-116, 96 h, HCT116, 4 days
Experimental: as §1

[4] = target: human PI3K(p110α/p85α) (Homo sapiens, UniProt P42336); experiment: Measurement of PI3K inhibitory activity (AlphaScreen GST Detection Kit); type: biochemical; conditions: 10 μM ATP, 4 μM PI(4,5)P2, read-out: Enzyme inhibitory activity (IC50, μM) PI3K α
Experimental: The inhibitory activity of compounds of the present invention represented by formula (I) were measured with human PI3K(p110α/p85α) prepared in a baculovirus expression system using the AlphaScreen GST Detection Kit (Perkin Elmer, Inc.). A predetermined concentration of the compound dissolved in dimethylsulfoxide (DMSO) and PI3K were mixed in a 384-well assay plate and after allowing to stand for 20 minutes at room temperature, 4 μM PI(4,5)P2 (Echelon Corporation) and 10 μM ATP (5 mM Hepes, pH 7.5, 2.5 mM MgCl2) were added to initiate the reaction. After reacting for 15 minutes at 37° C., GST-GRP1 expressed and purified from Escherichia coli, Anti-GST Acceptor Beads (Perkin Elmer, Inc.), Streptavidin Donor Beads (Perkin Elmer, Inc.) and biotin-PI(3,4,5) P3 (Echelon Corporation) (10 mM Tris-HCl pH 7.4, 150 mM NaCl, 7.5 mM EDTA, 1 mM DTT, 0.1% Tween 20) were added, and after allowing to stand for 1 hour at room temperature, light at 520 to 620 nm emitted as a result of exciting with light at 680 nm was measured with the Envision measuring instrument (Perkin Elmer, Inc.).
Test Example 1 described above can be performed according to “Analytical Biochemistry, 2003, 313, 234-245; Alexander Gray et al”.

human PI3K(p110α/p85α), sequence (P42336 whole entry): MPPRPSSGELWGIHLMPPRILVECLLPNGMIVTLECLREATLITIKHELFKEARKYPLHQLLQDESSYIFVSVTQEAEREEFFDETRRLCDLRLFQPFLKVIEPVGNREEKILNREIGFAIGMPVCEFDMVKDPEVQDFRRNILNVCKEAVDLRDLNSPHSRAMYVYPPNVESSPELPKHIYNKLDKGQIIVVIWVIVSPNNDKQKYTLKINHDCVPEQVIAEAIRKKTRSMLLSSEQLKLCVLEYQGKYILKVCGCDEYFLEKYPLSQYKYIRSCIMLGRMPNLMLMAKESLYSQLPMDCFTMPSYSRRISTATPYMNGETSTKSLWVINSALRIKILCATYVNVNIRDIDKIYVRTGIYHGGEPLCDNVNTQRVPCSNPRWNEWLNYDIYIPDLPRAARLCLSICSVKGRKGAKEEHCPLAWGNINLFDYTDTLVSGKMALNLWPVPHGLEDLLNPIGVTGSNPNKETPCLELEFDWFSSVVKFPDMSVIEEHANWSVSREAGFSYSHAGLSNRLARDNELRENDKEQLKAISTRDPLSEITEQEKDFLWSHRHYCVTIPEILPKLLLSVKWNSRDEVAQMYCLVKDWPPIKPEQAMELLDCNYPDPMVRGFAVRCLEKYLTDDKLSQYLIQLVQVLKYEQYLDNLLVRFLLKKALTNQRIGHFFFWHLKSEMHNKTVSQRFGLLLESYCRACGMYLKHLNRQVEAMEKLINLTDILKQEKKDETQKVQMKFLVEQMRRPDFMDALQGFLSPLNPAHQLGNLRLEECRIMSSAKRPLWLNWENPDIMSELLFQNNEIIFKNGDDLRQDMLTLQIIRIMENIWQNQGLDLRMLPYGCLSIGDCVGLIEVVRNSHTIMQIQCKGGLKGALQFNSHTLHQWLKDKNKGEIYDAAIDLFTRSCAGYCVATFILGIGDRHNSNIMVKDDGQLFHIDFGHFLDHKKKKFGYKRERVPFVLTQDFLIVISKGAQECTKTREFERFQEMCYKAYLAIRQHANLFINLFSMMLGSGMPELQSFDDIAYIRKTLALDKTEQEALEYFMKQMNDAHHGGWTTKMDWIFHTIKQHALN
human PI3K(p110α/p85α), sequence (P27986 whole entry partner): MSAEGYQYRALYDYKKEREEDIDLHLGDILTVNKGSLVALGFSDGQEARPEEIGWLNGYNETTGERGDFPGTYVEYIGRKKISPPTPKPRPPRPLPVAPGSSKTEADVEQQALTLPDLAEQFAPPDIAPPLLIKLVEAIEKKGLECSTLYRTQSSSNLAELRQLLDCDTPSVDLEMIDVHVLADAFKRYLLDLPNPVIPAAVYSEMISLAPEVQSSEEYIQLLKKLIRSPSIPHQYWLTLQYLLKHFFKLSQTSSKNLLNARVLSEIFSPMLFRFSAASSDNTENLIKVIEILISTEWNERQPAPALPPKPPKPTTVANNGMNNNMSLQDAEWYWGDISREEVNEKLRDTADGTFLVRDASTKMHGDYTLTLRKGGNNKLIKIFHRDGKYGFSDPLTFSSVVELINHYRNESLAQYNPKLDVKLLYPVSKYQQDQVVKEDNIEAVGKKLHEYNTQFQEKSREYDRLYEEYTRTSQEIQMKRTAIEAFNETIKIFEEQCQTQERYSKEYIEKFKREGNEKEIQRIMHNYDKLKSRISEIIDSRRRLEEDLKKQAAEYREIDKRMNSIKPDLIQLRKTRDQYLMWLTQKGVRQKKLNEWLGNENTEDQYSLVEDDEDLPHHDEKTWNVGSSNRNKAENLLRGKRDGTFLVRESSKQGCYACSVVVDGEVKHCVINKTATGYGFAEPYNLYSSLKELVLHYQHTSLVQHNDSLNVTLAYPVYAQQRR

IC50 [4] [µM] | Compound | inhibition at 2.5 µM [1] [%] | inhibition at 2.5 µM [2] [%] | inhibition at 2.5 µM [3] [%]
0.005 | Cc1ccc(N2CCOCC2)cc1NC(=O)N1CCc2c(-c3cnc(N)nc3)nc(N3CCOCC3)nc21 [Example D-237, 4-(2-Amino-pyrimidin-5-yl)-2-morpholin-4-yl-5,6-dihydro-pyrrolo[2,3-d]pyrimidine-7-carboxylic acid (2-methyl-5-morpholin-4-yl-phenyl)-amide] | 97 | 84 | 95
0.007 | Nc1ncc(-c2nc(N3CCOCC3)nc3c2CCN3C(=O)Nc2ccc(NCCN3CCOCC3)cc2)cn1 [Example D-108, 4-(2-Amino-pyrimidin-5-yl)-2-morpholin-4-yl-5,6-dihydro-pyrrolo[2,3-d]pyrimidine-7-carboxylic acid [4-(2-morpholin-4-yl-ethylamino)-phenyl]-amide] | 90 | 95 | 92
0.034 | CCN1CCN(C(=O)c2cc(F)c(NC(=O)N3CCc4c(-c5cnc(N)nc5)nc(N5CCOCC5)nc43)c(F)c2)CC1 [Example D-24, 4-(2-Amino-pyrimidin-5-yl)-2-morpholin-4-yl-5,6-dihydro-pyrrolo[2,3-d]pyrimidine-7-carboxylic acid [4-(4-ethyl-piperazine-1-carbonyl)-2,6-difluoro-phenyl]-amide] | 91 | 94 | 88
0.024 | CCN1CCN(C(=O)c2ccc(C)c(NC(=S)N3CCc4c(-c5cnc(N)nc5)nc(N5CCOCC5)nc43)c2)CC1 [Example D-17, 4-(2-Amino-pyrimidin-5-yl)-2-morpholin-4-yl-5,6-dihydro-pyrrolo[2,3-d]pyrimidine-7-carbothioic acid [5-(4-ethyl-piperazine-1-carbonyl)-2-methyl-phenyl]-amide] | 93 | 97 | 96
0.007 | CCN1CCN(C(=O)c2ccc(N3CCc4c(-c5cnc(N)nc5)nc(N5CCOCC5)nc43)cn2)CC1 [Example D-95, {5-[4-(2-Amino-pyrimidin-5-yl)-2-morpholin-4-yl-5,6-dihydro-pyrrolo[2,3-d]pyrimidin-7-yl]-pyridin-2-yl}-(4-ethyl-piperazin-1-yl)-methanone] | 91 | 83 | 93
0.3 | c1cc(N2CCc3c(-c4ccc5[nH]cnc5c4)nc(N4CCOCC4)nc32)ccn1 [Example B-22, 4-(1H-benzimidazol-5-yl)-2-morpholin-4-yl-7-pyridin-4-yl-6,7-dihydro-5H-pyrrolo[2,3-d]pyrimidine] | 22 | 72 | 71
0.24 | CN1CCN(Cc2ccc(N3CCc4c(-c5cnc(N)nc5)nc(N5CCOCC5)nc43)c(F)c2)CC1 [Example D-326, 5-{7-[2-fluoro-4-(4-methyl-piperazin-1-ylmethyl)-phenyl]-2-morpholin-4-yl-6,7-dihydro-5H-pyrrolo[2,3-d]pyrimidin-4-yl}-pyrimidin-2-ylamine] | 81 | 83 | 72
0.04 | CC(=O)N1CCc2c(-c3cnc(N)nc3)nc(N3CCOCC3)nc21 [Example D-01, 1-[4-(2-Amino-pyrimidin-5-yl)-2-morpholin-4-yl-5,6-dihydro-pyrrolo[2,3-d]pyrimidin-7-yl]-ethanone] | 89 | 92 | 83
0.06 | CC(C)N1CCN(Cc2ccc(N3CCc4c(-c5cnc(N)nc5)nc(N5CCOCC5)nc43)cc2)CC1 [Example D-328, 5-{7-[4-(4-isopropyl-piperazin-1-ylmethyl)-phenyl]-2-morpholin-4-yl-6,7-dihydro-5H-pyrrolo[2,3-d]pyrimidin-4-yl}-pyrimidin-2-ylamine] | 84 | 91 | 84
0.008 | Nc1ncc(-c2nc(N3CCOCC3)nc3c2CCN3c2ccc(C(=O)N3CCNCC3)nc2)cn1 [Example D-128, {5-[4-(2-Amino-pyrimidin-5-yl)-2-morpholin-4-yl-5,6-dihydro-pyrrolo[2,3-d]pyrimidin-7-yl]-pyridin-2-yl}-piperazin-1-yl-methanone] | 60 | 95 | 81
0.018 | CN(C)CCOc1cc(N2CCc3c(-c4cnc(N)nc4)nc(N4CCOCC4)nc32)ccn1 [Example H-32, 5-[7-(2-Dimethylaminoethoxy-pyridin-4-yl)-2-morpholin-4-yl-6,7-dihydro-5H-pyrrolo[2,3-d]pyrimidin-4-yl]-pyrimidin-2-ylamine] | 89 | 86 | 82
0.01 | CCN1CCN(c2ccc(NC(=O)N3CCc4c(-c5cnc(N)nc5)nc(N5CCOCC5)nc43)c(C)c2)CC1 [Example D-242, 4-(2-Amino-pyrimidin-5-yl)-2-morpholin-4-yl-5,6-dihydro-pyrrolo[2,3-d]pyrimidine-7-carboxylic acid [4-(4-ethyl-piperazin-1-yl)-2-methyl-phenyl]-amide] | 100 | 55 | 99
0.042 | Nc1ncc(-c2nc(N3CCOCC3)nc3c2CCN3c2ccc(C(=O)N3CCOCC3)cc2F)cn1 [Example D-22, {4-[4-(2-Amino-pyrimidin-5-yl)-2-morpholin-4-yl-5,6-dihydro-pyrrolo[2,3-d]pyrimidin-7-yl]-3-fluoro-phenyl}-morpholin-4-yl-methanone] | 79 | 83 | 82
0.022 | CCN1CCN(c2cc(F)c(NC(=O)N3CCc4c(-c5cnc(N)nc5)nc(N5CCOCC5)nc43)c(F)c2)CC1 [Example D-18, 4-(2-Amino-pyrimidin-5-yl)-2-morpholin-4-yl-5,6-dihydro-pyrrolo[2,3-d]pyrimidine-7-carboxylic acid [4-(4-ethyl-piperazin-1-yl)-2,6-difluoro-phenyl]-amide] | 93 | 102 | 100
0.009 | Oc1cccc(-c2nc(N3CCOCC3)nc3c2CCN3c2ccncc2)c1 [Example A-09, 3-(2-Morpholin-4-yl-7-pyridin-4-yl-6,7-dihydro-5H-pyrrolo[2,3-d]pyrimidin-4-yl)-phenol] | 96 | 84 | 83
0.26 | Nc1ncc(-c2nc(N3CCOCC3)nc3c2CCN3c2ccc(CN3CCN(CCF)CC3)cc2)cn1 [Example D-329, 5-(7-{4-[4-(2-fluoroethyl)-piperazin-1-ylmethyl]-phenyl}-2-morpholin-4-yl-6,7-dihydro-5H-pyrrolo[2,3-d]pyrimidin-4-yl)-pyrimidin-2-ylamine] | 65 | 81 | 73
0.24 | Oc1cc(-c2nc(N3CCOCC3)nc3c2CCN3c2ccncc2)ccc1F [Example A-32, 2-Fluoro-5-(2-morpholin-4-yl-7-pyridin-4-yl-6,7-dihydro-5H-pyrrolo[2,3-d]pyrimidin-4-yl)-phenol trifluoroacetic acid salt] | 81 | 79 | 81
0.006 | CCN1CCN(C(=O)c2ccc(NC(=O)N3CCc4c(-c5cnc(N)nc5)nc(N5CCOCC5)nc43)cc2)CC1 [Example D-103, 4-(2-Amino-pyrimidin-5-yl)-2-morpholin-4-yl-5,6-dihydro-pyrrolo[2,3-d]pyrimidine-7-carboxylic acid [4-(4-ethyl-piperazine-1-carbonyl)-phenyl]-amide] | 80 | 92 | 74
0.34 | Nc1ccc(-c2nc(N3CCOCC3)nc3c2CCN3c2ccncc2)nc1 [Example B-55, 6-(2-Morpholin-4-yl-7-pyridin-4-yl-6,7-dihydro-5H-pyrrolo[2,3-d]pyrimidin-4-yl)-pyridin-3-ylamine] | 47 | 58 | 79
